Target: T1, cyt P450 1A1 (Homo sapiens, UniProt P04798)
T1 sequence (P04798 1-512): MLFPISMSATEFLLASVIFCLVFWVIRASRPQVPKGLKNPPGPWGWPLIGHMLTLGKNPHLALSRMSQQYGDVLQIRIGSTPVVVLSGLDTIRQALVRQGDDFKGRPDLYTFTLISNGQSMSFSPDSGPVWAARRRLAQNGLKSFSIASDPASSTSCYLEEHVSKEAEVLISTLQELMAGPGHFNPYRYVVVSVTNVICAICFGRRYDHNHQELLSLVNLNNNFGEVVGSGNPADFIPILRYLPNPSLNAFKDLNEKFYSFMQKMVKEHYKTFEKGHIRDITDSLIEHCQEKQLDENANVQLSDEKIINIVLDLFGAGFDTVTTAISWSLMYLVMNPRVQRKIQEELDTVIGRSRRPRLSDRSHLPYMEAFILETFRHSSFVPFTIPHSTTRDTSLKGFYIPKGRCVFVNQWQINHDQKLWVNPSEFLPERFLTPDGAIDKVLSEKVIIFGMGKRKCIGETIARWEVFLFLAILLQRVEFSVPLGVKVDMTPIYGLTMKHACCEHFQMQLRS
Format: biochemical

SMILES: COc1ccc(/C=C/c2cc(O)cc(O)c2)cc1O [rhapontigenin]
- IC50: 32 ± 1 nM

— paper PMC3901045 (Lab on a chip, 2013)
